Laboratory results reported in US20180099931A1 (AbbVie S.à.r.l., priority 2016, published 2018).
Where two headings read alike, the source gives them in different places.

Molecular target: T1, F508delCFTR (Homo sapiens, UniProt P13569, DEL508-508)
T1 construct: expressed in transfected cells; host or cells: CFBE41o- human lung-derived epithelial cells (CFBE4lo-F508delCFTR-HRP), doxycycline-inducible
Assay: Cell Surface Expression-Horse Radish Peroxidase (CSE-HRP) Assay;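 on Maximum % activity (with co-corrector): co-corrector and positive control are both the same reference corrector at 2 µM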;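 on Maximum % activity (without co-corrector): percent of the 2 µM on-plate positive control corrector response above DMSO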
Format: cell-based
Details: for Emax / Maximum % activity (with co-corrector): maximum at any tested concentration, normalized to on-plate positive control; for Emax: read-out: Maximum % activity (without co-corrector)

[1] = test compound without co-corrector
[2] = test compound without co-corrector, read-out: EC50 (without co-corrector)
[3] = with co-corrector (2 μM of 3-[(2R,4R)-4-({[1-(2,2-difluoro-1,3-benzodioxol-5-yl)cyclopropyl]carbonyl}amino)-7-methoxy-3,4-dihydro-2H-chromen-2-yl]benzoic acid), read-out: EC50 (with co-corrector)
[4] = with co-corrector (2 μM of 3-[(2R,4R)-4-({[1-(2,2-difluoro-1,3-benzodioxol-5-yl)cyclopropyl]carbonyl}amino)-7-methoxy-3,4-dihydro-2H-chromen-2-yl]benzoic acid)
[5] = CSE-HRP, test compound without co-corrector, read-out: EC50 (without co-corrector)
[6] = CSE-HRP, with co-corrector (2 μM of 3-[(2R,4R)-4-({[1-(2,2-difluoro-1,3-benzodioxol-5-yl)cyclopropyl]carbonyl}amino)-7-methoxy-3,4-dihydro-2H-chromen-2-yl]benzoic acid), read-out: EC50 (with co-corrector)
[7] = CSE-HRP, with co-corrector (2 μM)

T1 sequence (P13569 with tags, fused parts or gaps DEL508-508): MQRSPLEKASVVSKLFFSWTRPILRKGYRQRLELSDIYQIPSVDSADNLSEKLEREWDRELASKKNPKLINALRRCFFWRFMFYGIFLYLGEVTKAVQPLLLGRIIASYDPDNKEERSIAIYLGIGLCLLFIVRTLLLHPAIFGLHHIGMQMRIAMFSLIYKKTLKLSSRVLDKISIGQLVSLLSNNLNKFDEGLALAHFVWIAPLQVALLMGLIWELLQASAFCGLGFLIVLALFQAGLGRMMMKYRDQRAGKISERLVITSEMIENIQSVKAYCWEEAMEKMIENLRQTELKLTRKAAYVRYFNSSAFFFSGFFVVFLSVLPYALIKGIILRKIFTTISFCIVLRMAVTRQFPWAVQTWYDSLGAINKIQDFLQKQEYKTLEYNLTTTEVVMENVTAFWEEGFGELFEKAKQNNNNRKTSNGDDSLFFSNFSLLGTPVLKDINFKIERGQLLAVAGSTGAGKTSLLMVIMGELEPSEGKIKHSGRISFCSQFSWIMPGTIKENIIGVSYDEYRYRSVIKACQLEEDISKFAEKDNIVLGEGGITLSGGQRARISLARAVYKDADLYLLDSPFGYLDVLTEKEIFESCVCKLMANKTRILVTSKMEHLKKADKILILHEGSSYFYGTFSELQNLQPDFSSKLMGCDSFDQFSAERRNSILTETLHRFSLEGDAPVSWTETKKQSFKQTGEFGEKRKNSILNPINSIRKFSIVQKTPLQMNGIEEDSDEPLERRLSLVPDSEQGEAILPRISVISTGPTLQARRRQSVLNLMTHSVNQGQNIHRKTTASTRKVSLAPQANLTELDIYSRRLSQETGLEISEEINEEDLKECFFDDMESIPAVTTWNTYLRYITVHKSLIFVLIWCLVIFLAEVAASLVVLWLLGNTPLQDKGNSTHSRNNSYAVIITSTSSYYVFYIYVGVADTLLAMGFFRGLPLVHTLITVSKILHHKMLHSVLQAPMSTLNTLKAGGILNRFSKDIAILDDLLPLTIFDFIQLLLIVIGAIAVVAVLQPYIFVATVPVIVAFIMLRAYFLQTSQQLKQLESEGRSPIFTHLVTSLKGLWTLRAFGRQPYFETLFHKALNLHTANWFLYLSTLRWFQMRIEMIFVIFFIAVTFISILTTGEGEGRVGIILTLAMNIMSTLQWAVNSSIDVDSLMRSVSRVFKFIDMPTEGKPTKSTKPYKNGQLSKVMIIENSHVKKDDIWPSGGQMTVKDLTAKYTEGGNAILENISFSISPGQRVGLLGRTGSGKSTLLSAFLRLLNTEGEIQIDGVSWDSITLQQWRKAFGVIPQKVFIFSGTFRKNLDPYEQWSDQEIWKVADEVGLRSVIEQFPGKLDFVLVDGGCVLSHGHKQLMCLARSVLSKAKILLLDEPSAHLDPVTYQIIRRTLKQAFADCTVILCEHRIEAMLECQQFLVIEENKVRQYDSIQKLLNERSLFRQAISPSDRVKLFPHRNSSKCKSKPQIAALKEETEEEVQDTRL

Structure (SMILES)	Emax [1] [%]	EC50 [2] [µM]	EC50 [3] [µM]	Maximum % activity (with co-corrector) (with co-corrector (2 μM))	Maximum % activity (with co-corrector) [4]	EC50 [5] [µM]	EC50 [6] [µM]	Maximum % activity (with co-corrector) [7]	Emax (CSE-HRP, without co-corrector) [%]	Emax (without co-corrector) [%]
COc1cc(C(F)(F)F)ccc1CN[C@@H]1[C@@H](C(C)(C)C)[C@H](C(=O)O)N(C(=O)C(C)c2ccccc2)[C@@H]1c1ccccc1 (single isomer, unassigned) [II-80]	–	–	–	–	–	1 to 10	1 to 10	+++ (≥350)	100 to 200	–
COc1ncc(C2CCCC2)cc1CN[C@H]1[C@H](C(C)(C)C)[C@@H](C(=O)O)N(C(=O)C2CCCCC2)[C@H]1c1ccccc1 [Example I-73]	–	< 1	< 1	+++ (≥350)	–	–	–	–	–	> 200
COc1nc(C(C)(C)C)ccc1CN[C@H]1[C@H](C(C)(C)C)[C@@H](C(=O)O)N(C(=O)C2CCCC(F)(F)C2)[C@H]1c1ccccc1 (stereo partly shown) [Example I-180]	–	1 to 10	1 to 10	+++ (≥350)	–	–	–	–	–	> 200
COc1nc(C(C)(C)C)ccc1CN[C@H]1[C@H](C(C)(C)C)[C@@H](C(=O)O)N(C(=O)[C@H](C)c2ccccc2)[C@H]1c1ccccc1 [Example I-182]	–	1 to 10	1 to 10	+++ (≥350)	–	–	–	–	–	100 to 200
CC(C)(C)[C@H]1[C@H](Nc2cccc(C(F)(F)F)c2)[C@H](c2ccccc2)N(C(=O)C2CCCCC2)[C@@H]1C(=O)O [Example I-56]	–	< 1	< 1	+++ (≥350)	–	–	–	–	–	< 100
CC(C)(C)[C@@H]1[C@@H](NCc2ccccc2OC(F)F)[C@@H](c2ccccn2)N(C(=O)C2CCCCC2)[C@H]1C(=O)O (racemic) [Example I-11]	–	1 to 10	1 to 10	++ (≥150 and <350)	–	–	–	–	–	< 100
COc1ccc(C(F)(F)F)cc1CN[C@H]1[C@H](C(C)(C)C)[C@@H](C(=O)O)N(C(=O)[C@H](OC)c2ccccc2)[C@H]1c1ccccc1N(C)C [II-62]	–	–	–	–	–	1 to 10	1 to 10	+++ (≥350)	> 200	–
COc1ncc(C2CCC2)cc1CN[C@H]1[C@H](C(C)(C)C)[C@@H](C(=O)O)N(C(=O)[C@@H]2CCCC(F)(F)C2)[C@H]1c1ccccc1 [Example 69, (2S,3S,4S,5S)-3-tert-butyl-4-{[(5-cyclobutyl-2-methoxypyridin-3-yl)methyl]amino}-1-[(1R)-3,3-difluorocyclohexane-1-carbonyl]-5-phenylpyrrolidine-2-carboxylic acid]	–	< 1	< 1	+++ (≥350)	–	–	–	–	–	> 200
COc1ccc(C(C)(C)C)cc1CN[C@H]1[C@H](C(C)(C)C)[C@@H](C(=O)O)N(C(=O)CN2Cc3ccccc3C2)[C@H]1c1ccccc1 [Example I-91]	–	1 to 10	1 to 10	+++ (≥350)	–	–	–	–	–	> 200
COc1ccc(C(C)(C)C)cc1CN[C@H]1[C@H](C(C)(C)C)[C@@H](C(=O)O)N(C(=O)C2CC3CCC(C2)O3)[C@H]1c1ccccc1 (stereo partly shown) [Example I-172]	–	1 to 10	1 to 10	+++ (≥350)	–	–	–	–	–	> 200
COc1ncc([Si](C)(C)C)cc1CN[C@H]1[C@H](C(C)(C)C)[C@@H](C(=O)O)N(C(=O)C2CCCCC2)[C@H]1c1ccccc1 [Example 47, (2S,3S,4S,5S)-3-tert-butyl-1-(cyclohexanecarbonyl)-4-({[2-methoxy-5-(trimethylsilyl)pyridin-3-yl]methyl}amino)-5-phenylpyrrolidine-2-carboxylic acid]	–	< 1	< 1	–	–	–	–	–	–	–
COc1ccc(C(C)(C)C)cc1CN[C@H]1[C@H](C(C)(C)C)[C@@](C)(C(=O)O)N(C(=O)C2CCCCC2)[C@H]1c1ccccc1 (racemic) [Example I-211]	–	> 10	1 to 10	+ (<150)	–	–	–	–	–	< 100
COc1ncc(C(F)(F)F)cc1CN[C@H]1[C@H](C(C)(C)C)[C@@H](C(=O)O)N(C(=O)[C@@H]2CCCC(F)(F)C2)[C@H]1c1ccccc1 [Example 49, (2S,3S,4S,5S)-3-tert-butyl-1-[(1R)-3,3-difluorocyclohexane-1-carbonyl]-4-({[2-methoxy-5-(trifluoromethyl)pyridin-3-yl]methyl}amino)-5-phenylpyrrolidine-2-carboxylic acid]	–	1 to 10	< 1	+++ (≥350)	–	–	–	–	–	> 200
COc1cc(Cl)ccc1CN[C@@H]1[C@@H](C(C)(C)C)[C@H](C(=O)O)N(C(=O)OC(C)C)[C@@H]1c1ccccc1 (racemic) [II-45]	–	–	–	–	–	1 to 10	1 to 10	+++ (≥350)	> 200	–

Further lines, results first:

Emax [1] [%]	EC50 [2] [µM]	EC50 [3] [µM]	Maximum % activity (with co-corrector) (with co-corrector (2 μM))	Maximum % activity (with co-corrector) [4]	EC50 [5] [µM]	EC50 [6] [µM]	Maximum % activity (with co-corrector) [7]	Emax (CSE-HRP, without co-corrector) [%]	Emax (without co-corrector) [%]	Structure (SMILES)
100 to 200	1 to 10	1 to 10	+++ (≥350)	–	–	–	–	–	–	COc1ccc(C23CC(C2)C3)cc1CN[C@H]1[C@H](C(C)(C)C)[C@@H](C(=O)O)N(C(=O)OC(C)C)[C@H]1c1cccnc1OC(F)F [III-218]
< 100	1 to 10	1 to 10	–	++ (≥150 and <350)	–	–	–	–	–	COc1ncc(C(F)(F)F)cc1N[C@H]1[C@H](C(C)(C)C)[C@@H](C(=O)O)N(C(=O)C2C3CCCC32)[C@H]1c1cccnc1N(C)C (stereo partly shown) [II-483]
< 100	> 10	1 to 10	–	++ (≥150 and <350)	–	–	–	–	–	COCCOc1cnc(Cl)cc1CN[C@@H]1[C@@H](C(C)(C)C)[C@H](C(=O)O)N(C(=O)C2CCCCC2)[C@@H]1c1ccccc1 (racemic) [III-72]
< 100	1 to 10	1 to 10	++ (≥150 and <350)	–	–	–	–	–	–	COc1ccc(C(F)(F)F)cc1CN[C@H]1[C@H](C(C)(C)C)[C@@H](C(=O)O)N(C(=O)C2(S(C)(=O)=O)CC2)[C@H]1c1ccccc1 [III-137]
> 200	1 to 10	< 1	–	+++ (≥350)	–	–	–	–	–	COc1ccc(C(C)(C)C)cc1CN[C@H]1[C@H](C(C)(C)C)[C@@H](C(=O)O)N(C(=O)C2CCCC2)[C@H]1c1ccccc1 [II-332]
< 100	1 to 10	1 to 10	++ (≥150 and <350)	–	–	–	–	–	–	COc1cc(Cl)cnc1N[C@@H]1[C@@H](C(C)(C)OC)[C@H](C(=O)O)N(C(=O)C2CCCCC2)[C@@H]1c1ccccc1 (racemic) [III-111]
–	–	–	–	–	1 to 10	< 1	+++ (≥350)	> 200	–	COc1ccc(C(C)(C)C)cc1CN[C@H]1[C@H](C(C)(C)C)[C@@H](C(=O)O)N(C(=O)Cc2cccc(F)c2F)[C@H]1c1ccccc1 [II-233]
< 100	> 10	1 to 10	++ (≥150 and <350)	–	–	–	–	–	–	COc1ccc(C(F)(F)F)cc1CN[C@@H]1[C@@H](C(C)(C)C)[C@H](C(=O)O)N(C(=O)[C@](OC)(c2ccccc2)C(F)(F)F)[C@@H]1c1ccccc1 [III-102]
> 200	1 to 10	1 to 10	–	+++ (≥350)	–	–	–	–	–	COc1ccc(C(F)(F)F)cc1CN[C@H]1[C@H](C(C)(C)C)[C@@H](C(=O)O)N(C(=O)OC(C)C)[C@H]1c1cccnc1N(C)C [II-551]
> 200	1 to 10	1 to 10	–	+++ (≥350)	–	–	–	–	–	COc1ccc(C(C)(C)C)cc1CN[C@H]1[C@H](C(C)(C)C)[C@@H](C(=O)O)N(C(=O)C2CCO2)[C@H]1c1ccccc1 (stereo partly shown) [II-443]
–	–	–	–	–	1 to 10	1 to 10	+++ (≥350)	< 100	–	CC(C)(C)[C@H]1[C@H](NCc2cc(Cl)ccc2Cl)[C@H](c2ccccc2)N(C(=O)C2CCCCC2)[C@@H]1C(=O)O [II-105]
< 100	> 10	> 10	–	+ (<150)	–	–	–	–	–	COc1ccnc(CN[C@@H]2[C@@H](C(C)(C)C)[C@H](C(=O)O)N(C(=O)C3CCCCC3)[C@@H]2c2ccccc2)n1 (racemic) [III-22]
–	–	–	–	–	1 to 10	1 to 10	+++ (≥350)	100 to 200	–	COc1cc(C(F)(F)F)ccc1CN[C@H]1[C@H](C(C)(C)C)[C@@H](C(=O)O)N(C(=O)C2CCCCC2)[C@H]1c1cccnc1C [II-94]
–	–	–	–	–	< 1	< 1	+++ (≥350)	> 200	–	COc1ccc(C2CCCC2)cc1CN[C@H]1[C@H](C(C)(C)OC)[C@@H](C(=O)O)N(C(=O)C2CCCCC2)[C@H]1c1ccccc1 [II-256]
> 200	1 to 10	1 to 10	–	+++ (≥350)	–	–	–	–	–	COc1ccc(Cl)cc1CN[C@@H]1[C@@H](C(C)(C)C)[C@H](C(=O)O)N(C(=O)C2CCCCC2)[C@@H]1c1ccccc1 (racemic) [III-27]
> 200	1 to 10	1 to 10	–	+++ (≥350)	–	–	–	–	–	COc1ccc(C(C)(C)C)cc1CN[C@H]1[C@H](C(C)(C)C)[C@@H](C(=O)O)N(C(=O)CC(C)C)[C@H]1c1ccccc1 [II-564]
